Test results taken from PubChem BioAssay (NCI).
“And” between values parts separate entries of the source, which are not always exact repeats. Equal entries are not always repeated.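 Five concentrations, 48 hours, 96-well plates. At the GI50, growth is halved. TGI denotes the concentration required for complete inhibition of growth.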

Test system: MDA-MB-468 breast
Experiment: NCI-60 cell line screen, 48 h

SMILES | GI50 | TGI
C/C(=N\Nc1ccc2ccccc2n1)c1ccccn1 | 0.0962 µM | 0.705 µM
CC(CN1CCN(CCOCCO)CC1)CN1c2ccccc2Sc2ccc(Cl)cc21 (centres undefined) | 1.69 µM | 4.14 µM
CC1=C(CCC(C)N(C)Cc2ccc(OCCCN3CCCC3)cc2)C(C)(C)CCC1 (centres undefined) | 2.15 µM | 5.75 µM
Cc1cc(N/N=C/c2nc(-c3ccc(Br)cc3)oc2C)c2cc(Cl)ccc2n1 | > 100 µM | > 100 µM
C=CC(=O)N1CCN(c2ccc3cccc(NC(=O)c4cnc(C)cn4)c3n2)CC1 | 1.83 µM | 7.45 µM
O=C(c1ccccc1)C(CN1CCOCC1)c1ccccc1 (centres undefined) | 0.382 µM | 1.59 µM
COc1ccc(-c2cc(-c3ccccc3)nc(SCCCC(=O)NO)n2)cc1 | 1.14 µM | 4.52 µM
O=C(C1CCCCC1)[C@@H]1[C@]2(C(=O)NC3CCCCC32)[C@@H]2CCCN2[C@@]12C(=O)NC1CCC(Cl)CC12 (some centres undefined) | 121 µM | 277 µM
Cc1ccc(C(=O)Nc2ccc(CN3CCN(C)CC3)c(C(F)(F)F)c2)cc1C#Cc1cnc2cccnn12 | 0.461 µM and 1.5 µM | 1.72 µM and 4.22 µM
CN(C)c1ccc2c(c1)Sc1cc(N(C)C)ccc1N2C(=O)c1ccccc1 | 44.7 µM | > 100 µM
COc1ccc(C2CC(c3cc(OC)c(OC)c(OC)c3)=NN2C(C)=O)cc1OCC(=O)Nc1nc2ccc(C(F)(F)F)cc2s1 (centres undefined) | 6.12 µM | 29.1 µM
Cc1cc2c3ccc(C)[n+](C)c3ccc2n1C | 1.12 µM | 8.5 µM
C[C@]12CCC3[C@@H](CC[C@@H]4c5nonc5CC[C@]34C)C1CCC(=O)N2 (some centres undefined) | 60.2 µM | > 100 µM
Cc1ccc(-c2cc(-c3ccc(C)cc3)nc(NCCNc3ccnc4cc(Cl)ccc34)n2)cc1 | 1.44 µM | 3.06 µM
CS(=O)(=O)c1ccc(C(=O)Nc2ccc(Cl)c(-c3ccccn3)c2)c(Cl)c1 | 20.8 µM and 2.16 µM | > 86 µM and 9.69 µM
COc1cccc(NC(=O)c2sc3nc4c(cc3c2N)CN(Cc2ccccc2)CC4)c1 | 2.6 µM | 61.4 µM
O=c1[nH]c2ccccc2nc1-c1c[nH]c2ccccc12 | > 100 µM | > 100 µM
O=C1c2c(c3c4ccccc4[nH]c3c3ccc4ccccc4c23)C(=O)N1CCN1CCCCC1 | 0.38 µM | 2.49 µM
C=CC(=O)Nc1cccc(C)c1Nc1cc(-c2cccnc2Cc2c(C)c(OC)cc(OC)c2C)ncn1 | 5.85 µM | 24.7 µM
N/C(=N\N=C\c1ccc(-c2ccccc2)cc1)N[N+](=O)[O-] | 0.935 µM | > 100 µM
Cc1cc(NCc2cc(Nc3ccnc4cc(Cl)ccc34)ccc2F)nc(N2CCCC2)n1 | 1.33 µM | 3.07 µM
CCN1CCC(CCOC)(CN2c3ccccc3Sc3ccc(Cl)cc32)C1 (centres undefined) | 1.66 µM | 3.37 µM
O=S(=O)(NCCNC/C=C/c1ccc(Br)cc1)c1cccc2cnccc12 | 3.3 µM and 5.06 µM | 13.8 µM and 18.5 µM
CCCn1cnc2c(c1=N)C(c1ccc(Cl)cc1)c1sc3c(C)cccc3c1O2 (centres undefined) | 0.361 µM | 3.9 µM

SMILES | GI50 | TGI
Cc1ccc(C(=O)Nc2cccc(C(F)(F)F)c2)cc1Nc1nc(-c2cccnc2)nc2c1cnn2C | 3.02 µM and 1.78 µM | 8.4 µM and 4.48 µM
N#C/C(=C\c1c(-c2ccccc2)[nH]c2ccccc12)S(=O)(=O)c1ccccc1 | 1.86 µM | > 28.3 µM
O[C@H]1CO[C@H]2[C@@H]1OC[C@@H]2Oc1ccc(Nc2ccnc(Nc3ccc(O[C@H]4CO[C@H]5[C@@H]4OC[C@@H]5O)c(Cl)c3)n2)cc1Cl | 1.18 µM | 3.81 µM
Nc1ncnc2[nH]ncc12 | 0.219 µM | 2.85 µM
CC(C)(C)c1ccc(OCCCCCCN2CCNCC2)cc1 | 2.38 µM | 6.78 µM
C[C@]12CC[C@H]3[C@@H](CCC4=CC(=O)CC[C@@H]43)[C@@H]1CC[C@@H]2OC(=O)CCc1ccccc1 | > 61.4 µM | > 100 µM
Cc1ccc(NC(=O)/C=C/c2ccccc2)c(C(N)=O)c1 | 3.17 µM | 28.1 µM
C=C1CC[C@@H]2[C@](C)(COC(C)=O)[C@@H](O)CC[C@@]2(C)[C@@H]1COc1ccc2ccc(=O)oc2c1 | > 100 µM | > 100 µM
C=CC(=O)N(C)[C@H]1C[C@H]2OC(C)(C1OC)n1c3ccccc3c3c4c(c5c6ccccc6n2c5c31)C(=O)NC4 (some centres undefined) | 0.0571 µM | 0.235 µM
CC(C)CC(CC1=CCC2CC1C2(C)C)C1=C(O)C(C)(C)C(=O)C(C)(C)C1=O (centres undefined) | 0.268 µM | 1.33 µM
CN(C)c1ccc(/C=C\c2cccc[n+]2C)cc1 | 0.988 µM | 5.76 µM
CN(C)CCCN1c2ccccc2CCc2ccc(Cl)cc21 | 1.42 µM | 3.23 µM
O=C(/C(=C/c1ccccc1)CN1CCCCC1)c1ccccc1 | 0.531 µM | 1.95 µM
CCC1C(c2cc(OC)c(OC)c(OC)c2)c2cc3c(cc2OC1N1CCCC1)OCO3 (centres undefined) | 4.23 µM | 25.2 µM
CCCn1c(C)nc2c1C(=O)c1ccccc1C2=O | 18.7 µM | 56.7 µM
O=[N+]([O-])c1cccc(-c2nc3sccn3c2-c2ccnc(NCCCNS(=O)(=O)c3cccc(F)c3)n2)c1 | 0.829 µM | 6.1 µM
CCN=C1C=CC(=C(c2ccc(N)cc2)c2ccc(N(CC)CC)c(C)c2)C=C1 | 0.193 µM | 0.718 µM
COc1ccc(-c2n[nH]nc2-c2cc(OC)c3c(c2OC)OCO3)cc1 | 0.386 µM | 1.49 µM
CN1CCN(Cc2ccc(NC(=O)c3cncc(C#Cc4cnc(N)c5ccncc45)c3)cc2C(F)(F)F)CC1 | 1.26 µM | 8.24 µM
Clc1cc(Cl)c(OCC#CI)cc1Cl | 2.36 µM | 7.29 µM
COC(=O)C(Cc1ccccc1)NC(=O)NC(=O)NC(=O)CI (centres undefined) | 4.1 µM | 15.1 µM
Cn1c2c(cc(S(=O)(=O)c3ccccc3)c1=O)CCc1c-2cnn1-c1ccc(Cl)cc1 | 2.39 µM | 5.65 µM
CCN(C(=O)N1CCN(c2cc3c(cc2F)c(=O)c(C(=O)O)cn3C2CC2)CC1)c1nc(-c2ccc(C)cc2)cs1 | 1.13 µM | 7.4 µM
